pKd: −log10 of the molar value.
Biological target: T1, CaCDPK1 (Cicer arietinum, UniProt Q7XZK5)
T1 construct: gene CDPK1; full ORF in pRSET A (His-tag), expressed in Escherichia coli BL21, Ni-NTA purified under native conditions; tag removal not mentioned
Test: intrinsic tryptophan fluorescence quenching at […] nm
Type: binding
Conditions: PA vesicles (sonicated), 1 mM CaCl2, pH 7.2, 25 °C, 1 µM protein; half-maximal fluorescence change; activator

T1 sequence (Q7XZK5 1-556): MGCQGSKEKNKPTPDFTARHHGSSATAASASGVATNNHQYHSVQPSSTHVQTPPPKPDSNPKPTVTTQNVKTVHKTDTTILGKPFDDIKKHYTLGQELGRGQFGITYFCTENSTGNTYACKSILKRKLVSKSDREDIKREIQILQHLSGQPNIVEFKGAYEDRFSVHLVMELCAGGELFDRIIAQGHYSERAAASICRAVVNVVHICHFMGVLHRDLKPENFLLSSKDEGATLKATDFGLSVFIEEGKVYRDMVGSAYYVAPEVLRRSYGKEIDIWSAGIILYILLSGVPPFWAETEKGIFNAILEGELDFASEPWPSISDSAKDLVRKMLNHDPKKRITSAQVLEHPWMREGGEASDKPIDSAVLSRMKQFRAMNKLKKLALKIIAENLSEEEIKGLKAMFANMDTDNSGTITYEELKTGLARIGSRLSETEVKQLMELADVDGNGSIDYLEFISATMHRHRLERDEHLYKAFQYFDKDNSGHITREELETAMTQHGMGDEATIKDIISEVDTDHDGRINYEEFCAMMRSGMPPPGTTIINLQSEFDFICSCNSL

1,2-diacyl-sn-gylcero-3-P sodium salt [PA]
pKd: 6.47

Source: paper PMC3527483, “Phospholipid Mediated Activation of Calcium Dependent Protein Kinase 1 (CaCDPK1) from Chickpea: A New Paradigm of Regulation” (PLoS ONE, 2012)
